Laboratory results from patent publication US12637473B2, “MDM2 protein degraders” (THE REGENTS OF THE UNIVERSITY OF MICHIGAN, priority 2016, dated 2026).
Entries after “also recorded” stand apart in the source; their conditions may differ.

Experiments:
Type in all cases: cell-based
[1] = system: MV4-11 cell line; experiment: CellTiter-Glo Luminescent Cell Viability Assay, cell growth inhibition; conditions: Homo sapiens, 96 h, 4 days
Outline: (§1)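 Cells plated at 2,000/well with serially diluted compounds, incubated 4 days at 37° C, 5% CO2. Viability read by CellTiter-Glo luminescence after 10-20 min at room temperature; IC50 from dose-response fit.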

[2] = system: RS4; 11 cell line; experiment: as above; conditions: Homo sapiens, 96 h, 4 days
Outline: as §1

[3] = system: p53 target genes: p21, PUMA and BAX; experiment: Activation of p53 downstream target genes, quantitative real-time PCR; conditions: RS4, 11 cells, 10 nM; for mRNA levels of p21: FIG. 3; for mRNA levels of PUMA: FIG. 4; for mRNA levels of BAX: FIG. 5; for activation of p53 downstream target genes (mRNA levels of p21, PUMA, BAX): 3, 6, or 12 hours
Description: RS4; 11 cells were treated with Cpd. A (0.3 μM), Cpd. No. 15 (10 nM), and Cpd. No. 22 (10 nM) for 3, 6, or 12 hours, and then harvested and washed. Cellular mRNA samples were extracted from the cells and then subjected to Reverse Transcription and quantitative real-time PCR for the analysis of the mRNA levels of three representative p53 target genes: p21, that induces cell cycle arrest, and PUMA and BAX that leads to apoptosis. […] A, Cpd. No. 15, and Cpd. No. 22.

[4] = system: RS4; 11 cells; experiment: Cell growth inhibition by WST assay with Cpd. C co-treatment (CRBN competition); set-up: LogIC50: unit not given here; conditions: for HillSlope / IC50 / LogIC50: 4 days; for shift of the dose response curves: co-treatment of Cpd. C (10, 20, or 30 μM)
Description: RS4; 11 cells were pre-incubated with different concentrations of Cpd. C to compete for the binding of phthalimide to CRBN, or DMSO, for 2 hours before adding Cpd. A, Cpd. No. 14, Cpd. No. 15, and Cpd. No. 22. The cells were then co-treated with 10, 20, or 30 μM Cpd. C and increasing concentrations of Cpd. A, Cpd. No. 14, Cpd. No. 15, and Cpd. No. 22 for 4 days, with a starting cell concentration of ˜15,000/well. Cell growth inhibition was determined by the WST assay. […] No. 14, Cpd. No. 15, and Cpd. No. 22 with co-treatment of Cpd. C. The structure of Cpd.

[5] = system: RS4; 11 cells with stable shRNA knockdown of p53; experiment: Cell growth inhibition by WST assay, p53 knockdown cells; set-up: LogIC50: unit not given here; conditions: RS4;11 sh p53, 4 days; for IC50: Homo sapiens, 96 h
Description: (§2) RS4; 11 cells with stable shRNA knockdown of p53 or those transfected shRNA control vector were treated with Cpd. A, Cpd. B, Cpd. No. 14, Cpd. No. 21, Cpd. No. 15, and Cpd. No. 22 for 4 days, with a cell concentration of ˜15,000/well. Cell growth inhibition was determined by WST assay. See Table 7 (p53) and Table 8 (control). Significant increases in IC50 of the Compounds of the Disclosure in the p53 knockdown RS4; 11 cells were observed compared with that in the sh control cells. […] The p53 knockdown efficiency was determined by western blot for p53 protein levels with or without treatment of Cpd. A (1 μM) for 2 hours.

[6] = system: RS4; 11 cells transfected shRNA control vector; experiment: Cell growth inhibition by WST assay, shRNA control cells; set-up: LogIC50: unit not given here; conditions: RS4;11 sh Control, 4 days; for IC50: Homo sapiens, 96 h
Description: as §2

[7] = target: T1, MDM2 (Homo sapiens, UniProt Q00987); experiment: MDM2 degradation and p53 activation, western blotting of cell lysates; set-up: endogenous in cells; conditions: for p53 activation: MV-4-11 cell line; for protein level of MDM2 (MDM2 degradation): MV-4-11 cells, 2 hours, compared to Cpd. A
Description: MV-4-11 cells were treated with Cpd. A, Cpd. B, Cpd. No. 15, and Cpd. No. 22 for 2 hours, then harvested and lysed. The cell lysates were subjected to western blotting analysis. […] No. 15 and Cpd. No. 22 as compared to Cpd. A, indicating MDM2 degradation.

[8] = target: T1, MDM2; experiment: as above; set-up: endogenous in cells; host or cells: RS4;11; conditions: RS4; for p53 activation: 11 cell line; for protein level of MDM2 (MDM2 degradation): 11 cells, 2 hours, compared to Cpd. A
Description: RS4; 11 cells were treated with Cpd. A, Cpd. B, Cpd. No. 15, and Cpd. No. 22 for 2 hours, then harvested and lysed. The cell lysates were subjected to western blotting analysis. […] No. 15 and Cpd. No. 22 as compared to Cpd. A, indicating MDM2 degradation. The structure of Cpd.

[9] = target: T1, MDM2; experiment: MDM2 degradation with or without proteasome inhibitor MG-132, western blotting; set-up: endogenous in cells; host or cells: RS4;11; conditions: FIG. 6
Description: RS4; 11 cells were pre-incubated with the proteasome inhibitor MG-132 (20 μM) or without any pre-incubation for 2 hours. Next, the cells were treated with Cpd. A (0.3 μM), Cpd. No. 14 (0.03 μM), Cpd. No. 15 (0.01 μM), and Cpd. No. 22 (0.01 μM) for 2 hours, then harvested and lysed. The cell lysates were subject to western blotting analysis.

[10] = target: T1, MDM2; experiment: MDM2 degradation and p53 activation after pre-incubation with Cpd. C, Western blot; set-up: endogenous in cells; host or cells: RS4;11; conditions: for MDM2 degradation, dependence on cereblon (CRBN): FIG. 7; for MDM2 degradation, competition by Cpd. C / p53 activation, competition by Cpd. C: RS4, 11 cells, pre-incubated with 30 μM Cpd. C for 2 hours
Description: RS4; 11 cells were pre-incubated with 30 μM Cpd. C to compete for the binding of phthalimide to CRBN, or DMSO, for 2 hours before adding Cpd. A, Cpd. No. 14, Cpd. No. 15, and Cpd. No. 22. In the Western blot RS4; 11 cells were then co-treated with the indicated compounds at the indicated concentrations after pre-incubation. […] No. 14, Cpd. No. 15, and Cpd.

[11] = Homo sapiens, 96 h, without Cpd. C

T1 sequence (Q00987 whole entry): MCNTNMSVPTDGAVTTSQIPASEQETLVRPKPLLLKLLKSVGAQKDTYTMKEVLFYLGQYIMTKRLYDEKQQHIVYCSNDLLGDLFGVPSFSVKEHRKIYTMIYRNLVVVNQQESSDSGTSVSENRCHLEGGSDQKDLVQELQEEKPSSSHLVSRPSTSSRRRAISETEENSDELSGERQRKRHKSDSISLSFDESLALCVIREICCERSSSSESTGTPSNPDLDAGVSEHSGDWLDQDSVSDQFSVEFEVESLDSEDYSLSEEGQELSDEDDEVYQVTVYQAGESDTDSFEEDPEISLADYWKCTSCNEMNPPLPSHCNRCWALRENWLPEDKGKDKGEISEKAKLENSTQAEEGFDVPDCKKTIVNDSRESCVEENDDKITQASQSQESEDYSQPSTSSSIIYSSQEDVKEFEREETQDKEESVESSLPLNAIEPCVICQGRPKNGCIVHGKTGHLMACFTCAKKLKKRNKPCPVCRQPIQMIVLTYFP

Row | SMILES | IC50 [1] [nM] | IC50 [2] [nM] | mRNA levels of p21 [3] | mRNA levels of PUMA [3] | mRNA levels of BAX [3] | activation of p53 downstream target genes (mRNA levels of p21, PUMA, BAX) [3] | HillSlope ([4]; + 10 uM Cpd. C) | IC50 ([4]; + 10 uM Cpd. C) [nM] | LogIC50 ([4]; + 10 uM Cpd. C) | HillSlope ([4]; + 20 uM Cpd. C) | IC50 ([4]; + 20 uM Cpd. C) [nM] | LogIC50 ([4]; + 20 uM Cpd. C) | HillSlope ([4]; + 30 uM Cpd. C) | IC50 ([4]; + 30 uM Cpd. C) [nM] | LogIC50 ([4]; + 30 uM Cpd. C) | HillSlope ([4]; without Cpd. C) | LogIC50 ([4]; without Cpd. C) | IC50 [4, 11] [nM] | shift of the dose response curves [4] | IC50 [5] [nM] | further results
1 | O=C1CCC(N2C(=O)c3cccc(NCCOCCOCCOCCNC(=O)c4ccc(NC(=O)[C@@H]5NC6(CCCCC6)[C@@]6(C(=O)Nc7cc(Cl)ccc76)[C@H]5c5cccc(Cl)c5F)cc4)c3C2=O)C(=O)N1 (stereo partly drawn) [Cpd. No. 15, (3′R,4'S,5′R)-6″-chloro-4′-(3-chloro-2-fluorophenyl)-N-(4-((2-(2-(2-(2-((2-(2,6-dioxopiperidin-3-yl)-1,3-dioxoisoindolin-4-yl)amino)ethoxy)ethoxy)ethoxy)ethyl)carbamoyl)phenyl)-2″-oxodispiro[cyclohexane-1,2′-pyrrolidine-3′,3″-indoline]-5′-carboxamide] | 2 | 4.4 | activate | activate | activate | Significant activation | −1.654 | 44 | −1.356 | −1.540 | 68.2 | −1.167 | −1.416 | 62.4 | −1.205 | −1.839 | −2.312 | 4.87 | Significant rightward shifts | 110 | HiliSlope [5]: −0.8905; LogIC50 [5]: −0.9565; IC50 [6]: 7.47 nM; HiliSlope [6]: −1.626; LogIC50 [6]: −2.127; p53 activation [7]: p53 activation; protein level of MDM2 (MDM2 degradation) [7]: induce MDM2 degradation; also recorded: significantly decreased; p53 activation [8]: p53 activation; protein level of MDM2 (MDM2 degradation) [8]: induce MDM2 degradation; also recorded: significantly decreased; MDM2 degradation, dependence on proteasome [9]: proteasome-dependent; MDM2 degradation, dependence on cereblon (CRBN) [10]: cereblon (CRBN)-dependent; MDM2 degradation, competition by Cpd. C [10]: significantly competed by Cpd. C; p53 activation, competition by Cpd. C [10]: significantly competed by Cpd. C
2 | O=C1CCC(N2Cc3c(NCCOCCOCCOCCNC(=O)c4ccc(NC(=O)[C@@H]5NC6(CCCCC6)[C@@]6(C(=O)Nc7cc(Cl)ccc76)[C@H]5c5cccc(Cl)c5F)cc4)cccc3C2=O)C(=O)N1 (stereo partly drawn) [Cpd. No. 22, (3′R,4'S,5′R)-6″-chloro-4′-(3-chloro-2-fluorophenyl)-N-(4-((2-(2-(2-(2-((2-(2,6-dioxopiperidin-3-yl)-1-oxoisoindolin-4-yl)amino)ethoxy)ethoxy)ethoxy)ethyl)carbamoyl)phenyl)-2″-oxodispiro[cyclohexane-1,2′-pyrrolidine-3′,3″-indoline]-5′-carboxamide] | 2.7 | 4.7 | activate | activate | activate | Significant activation | −1.701 | 61.7 | −1.209 | −1.530 | 89.6 | −1.048 | −1.341 | 83.2 | −1.080 | −1.803 | −2.242 | 5.73 | Significant rightward shifts | 137 | HiliSlope [5]: −0.8833; LogIC50 [5]: −0.8628; IC50 [6]: 9.45 nM; HiliSlope [6]: −1.567; LogIC50 [6]: −2.025; p53 activation [7]: p53 activation; protein level of MDM2 (MDM2 degradation) [7]: induce MDM2 degradation; also recorded: significantly decreased; p53 activation [8]: p53 activation; protein level of MDM2 (MDM2 degradation) [8]: induce MDM2 degradation; also recorded: significantly decreased; MDM2 degradation, dependence on proteasome [9]: proteasome-dependent; MDM2 degradation, dependence on cereblon (CRBN) [10]: cereblon (CRBN)-dependent; MDM2 degradation, competition by Cpd. C [10]: significantly competed by Cpd. C; p53 activation, competition by Cpd. C [10]: significantly competed by Cpd. C
